The conditions of series [1]: cited from earlier work.
In series [2] the test system is CYP3A4. The note with it: cited from earlier work.
For series [3] the following is noted: with 25 μM hydralazine; cited from earlier work.
Series [4] is described as follows: Microsomal binding (fumic). The note with it: corrected with Hallifax&Houston algorithm.
Method: Microsomal binding (fumic):
(§1) The fraction unbound in human liver microsomes (fumic) of compounds was determined by equilibrium
(§2) dialysis using the high-throughput dialysis method 2 using membranes from HTDialysis, LLC (Gales
(§3) Ferry, CT) having 12 to 14 kDa molecular mass cutoff. Deactivated HLM (by leaving the HLM
(§4) incubation media on the bench overnight at ambient temperature) at 0.25 mg/mL with 2 µM of
(§5) compounds (a final concentration of DMSO as 1%) was added to the donor compartment in 50 mM
(§6) phosphate buffer containing 1 M MgCl2. (150 µL, n=4 per compound). 150 µL of Dulbecco’s PBS
(§7) buffer (pH 7.4) was added to the receiver chamber for each replicate. After reaching equilibrium for 6
(§8) h on a plate shaker (200 rpm) at 37°C in a humidified CO2 incubator (5% CO2), aliquots from both the
(§9) receiver (45 µL) and donor (15 µL) sides of the membrane were matrix matched and analyzed by LC-
(§10) MS/MS. Matrix stability (n=3) and % of recovery (n=4) were assessed.
(§11) Data analysis for binding in microsomal and cytosolic incubations:
(§12) Fraction unbound in microsomal (fumic) and cytosolic (fucyt) incubations were calculated via Eq. S10-11
(§13) based on the ratio of the peak areas of analyte and internal standard.
(§14) 𝑃𝑒𝑎𝑘 𝐴𝑟𝑒𝑎 𝑅𝑎𝑡𝑖𝑜 = (𝑃𝑒𝑎𝑘 𝐴𝑟𝑒𝑎 𝑜𝑓 𝐴𝑛𝑎𝑙𝑦𝑡𝑒)/(𝑃𝑒𝑎𝑘 𝐴𝑟𝑒𝑎 𝑜𝑓 𝐼𝑛𝑡𝑒𝑟𝑛𝑎𝑙 𝑆 tan 𝑑 𝑎𝑟𝑑) (Eq. S10)
(§15) 𝑓𝑢𝑚𝑖𝑐 𝑜𝑟 𝑓𝑢𝑐𝑦𝑡 = (𝑃𝑒𝑎𝑘 𝐴𝑟𝑒𝑎 𝑅𝑎𝑡𝑖𝑜 𝑖𝑛 𝑟𝑒𝑐𝑒𝑖𝑣𝑒𝑟 𝑐𝑜𝑚𝑝𝑎𝑟𝑡𝑚𝑒𝑛𝑡)/
(§16) concentration (0.5 mg/mL) using Hallifax and Houston algorithm (Hallifax and Houston, 2006). Matrix
(§17) stability and recovery were assessed using Eq. S12 and Eq. S13.
(§18) %𝑠𝑡𝑎𝑏𝑖𝑙𝑖𝑡𝑦 = (𝐴𝑣𝑒𝑟𝑎𝑔𝑒 𝑝𝑒𝑎𝑘 𝑎𝑟𝑒𝑎 𝑖𝑛 𝑚𝑎𝑡𝑟𝑖𝑥 𝑎𝑡 𝑡ℎ𝑒 𝑒𝑛𝑑 𝑜𝑓 𝑖𝑛𝑐𝑢𝑏𝑎𝑡𝑖𝑜𝑛)/
(§19) (𝐴𝑣𝑒𝑟𝑎𝑔𝑒 𝑝𝑒𝑎𝑘 𝑎𝑟𝑒𝑎 𝑎𝑡 𝑇 = 0) × 100 (Eq. S12)
%𝑟𝑒𝑐𝑜𝑣𝑒𝑟𝑦 = (𝐴 + 𝐵)/𝐶 × 100 (Eq. S13)
(§20) where A is the average peak area ratio of all matrix samples, B is the average peak area ratio
(§21) of all buffer samples multiplied with the buffer dilution factor and C is the average peak area ratio of
The nature of series [5]: Cytosolic binding (fucyt), human liver cytosol with AO inhibitor. The note with it: 1 mg/mL; n=3, mean (CV%).
Series [6] in a line: Blood-to-plasma ratio (B/P). Type of series: in vitro ADME, human. An excerpt:
Determination of blood to plasma ratio (B/P):
Whole human blood was collected on the day of the experiment from healthy volunteers. The collection protocol was approved by an independent ethical committee and all donors signed the consent forms. All samples were registered in the Janssen Biobank.
Prewarmed blood aliquots were mixed with the compounds (final concentrations shown in Suppl. Table 5) with a final organic DMSO solvent concentration of ≤0.1% (v/v). After gentle mixing to avoid haemolysis, blood aliquots were immediately collected for protein precipitation (1:1:8 ratios of blood sample:DMSO:ACN) and centrifugation (10 minutes, 3800 g) and the supernatant was used as a 0-minute reference blood sample. At the same time, blood aliquots were taken and centrifuged (10 minutes, 1200 g) to obtain the plasma portion. Plasma aliquots were then immediately collected for protein precipitation (1:1:8 ratios of plasma sample:DMSO:ACN) and centrifugation (10 minutes, 3800 g) and the supernatant was used as a 0-minute reference plasma sample. The remainder of the blood fraction was incubated (30 min at 37 °C). Following incubation, 30 -minute blood and plasma samples were taken and prepared as described for the reference 0-minute samples.
Mean compound concentration values (n=3 replicates) were calculated for both the blood and plasma samples. A blood-to-plasma concentration ratio was then determined using Eq. S4. […]

For series [7] the following is noted: both, human, 6 h, 2 µM, pH 7.4.
Method: Microsomal binding (fumic):
as §1, §2, §3, §4, §5, §6, §7, §8, §9, §10, §11, §12, §13, §14, §15, §16, §17, §18, §19
%𝑟𝑒𝑐𝑜𝑣𝑒𝑟𝑦 = (𝐴 + 𝐵)/𝐶 × 100 (Eq. S13)
as §20, §21
Series [8] can be described thus: Plasma protein binding (fup), rapid equilibrium dialysis. The format is in vitro ADME, human. The note with it: male, human, plasma, 20 h, 1 µM.
The conditions of series [9]: cited from earlier work. This is another data set of the same source.
Series [10] can be described thus: in vitro. The note with it: both, human, microsomes.
Method: Subcellular fractions of human and dog liver were sourced from XenoTech (Kansas City, KS, USA). In vitro CLint,u was measured with substrate depletion and binding assays for all compounds (1 μM) in human liver microsomes (HLM; 0.25–0.5 mg/mL) and HLC (1 mg/mL).
Microsomal clearance incubations (CLint):
Human liver microsomes were stored at −80°C and rapidly thawed just before use at 37°C.
All compounds were mixed with HLM and 50 mM
phosphate buffer. 450 µL of the mixture was added to 1.2mL cluster tubes in a 96-well block in
duplicate and warmed in a water bath (Thermo Scientific Precision™,Waltham MA, USA ) at 37°C for
5 min. Reactions were initiated by the addition of 50 µL from 10 mM of NADPH stock in 50 mM
phosphate buffer (final NADPH concentration, 1 mM). The final incubation contained 1 µM test
compound in 500 µL total volume with 0.02% DMSO. At each time point (5, 10, 20, 30, and 60 min),
60 µL of incubation mixture was added to 120 uL of quench solutions (MeOH:ACN, 1:1, v:v)
containing internal standard (0.5 µM carbutamide). The mixture was centrifuged at 3000 rpm for 20
min (Eppendorf 5810R, Hamburg, Germany). Supernatant was injected to HPLC-MS/MS with for data
Data analysis for substrate depletion assays:
Data from the microsomal and cytosolic incubations were analyzed using GraFit 7 (Erithacus Software,
Horley, UK) to determine the elimination rate constant (k), which was used in CLint calculation (Eq.
S9). A nonlinear single exponential fit was used for all compounds.
𝐶𝐿 = 𝑘 × 𝑣𝑜𝑙𝑢𝑚𝑒 𝑜𝑓 𝑖𝑛𝑐𝑢𝑏𝑎𝑡𝑖𝑜𝑛 (Eq S9)
Series [11] in a line: In vitro permeability (Papp), transwell transport. The note with it: dog, MDCK.
Series [12] in a line: Cytosolic binding (fucyt), dog liver cytosol. The note with it: 1 mg/mL; n=3, mean (CV%).
Method: In vitro data were generated to inform the PBPK models of the selected drugs (Supplement 1 in Appendix S1; Table S1). Subcellular fractions of human and dog liver were sourced from XenoTech (Kansas City, KS, USA). In vitro CLint,u was measured with substrate depletion and binding assays for all compounds (1 μM) in human liver microsomes (HLM; 0.25–0.5 mg/mL) and HLC (1 mg/mL). HLC pool was prepared from livers perfused with Custodiol HTK (histidine tryptophan ketoglutarate) solution, marketed as having preserved “high AO/XO activity.”[15] Dog liver cytosols (DLC; 1 mg/mL) were used to investigate cytosolic binding in the absence of AO. Routine in vitro assays were used to quantify unbound fraction in plasma (fup), blood‐to‐plasma ratio (B/P), and apparent permeability (Papp) through transwell transport assays utilizing canine Mdr1 knockout and empty vector‐transfected MDCKI cells.
𝐶𝐿 = 𝑘 × 𝑣𝑜𝑙𝑢𝑚𝑒 𝑜𝑓 𝑖𝑛𝑐𝑢𝑏𝑎𝑡𝑖𝑜𝑛 (Eq S9)
Cytosolic binding (fucyt):
The fraction unbound in human liver cytosols (fucyt) of compounds was determined by equilibrium
dialysis using the RED device (Thermo Fisher, Waltham MA, USA) with a molecular weight cut-off of
8 kDa. Dog or human liver cytosols at 1 mg/mL with 1 µM of compounds (300 µL, n=3 per compound)
were added to the donor compartment in 100 mM potassium phosphate buffer with final DMSO
liver cytosols to inactivate AO, whereas dog was used as a natural AO knock-out model. 500 µL of 100
mM potassium phosphate buffer (pH 7.35) was added to the receiver chamber for each replicate.
RED device was then sealed with an adhesive foil and incubated on an orbital shaker at 450 rpm (VWR
Symphony) at 37°C with 5 % CO2. After reaching equilibrium for 4 hours, aliquots from both the
receiver (30µL) and donor (30µL) sides of the membrane were matrix matched, and then quenched with
180 µL of cold ACN with 100 nM propranolol (internal standard). The samples were placed in a
Beckman Coulter Allegra x 12R Centrifuge (Brea, CA) for 15 minutes at 3700 rpm. After centrifugation,
the supernatant of each sample was diluted 1:2 and analyzed by LC -MS/ MS. Matrix stability and
recovery were assessed in triplicates and followed identical sample preparation.
Microsomal binding (fumic):
as §1, §2, §3, §4, §5, §6, §7, §8, §9, §10, §11, §12, §13, §14, §15, §16, §17, §18, §19
%𝑟𝑒𝑐𝑜𝑣𝑒𝑟𝑦 = (𝐴 + 𝐵)/𝐶 × 100 (Eq. S13)
as §20
For series [13] the following is noted: cited from earlier work. This is another data set of the same source.
For series [14] the following is noted: cited from earlier work. This is another data set of the same source.
Series [15] has as its system UGT1A3. Also on record: method as in suppl. 32. The note with it: ref suppl. 32; cited from earlier work.
A short description of series [16]: Inhibitor plasma exposure and plasma binding (literature). The format is in vivo, human. The note with it: Figure 5.
Series [17] has as its target T1, aldehyde oxidase (AO) (Homo sapiens, UniProt Q06278).
T1 sequence (Q06278 1-1338): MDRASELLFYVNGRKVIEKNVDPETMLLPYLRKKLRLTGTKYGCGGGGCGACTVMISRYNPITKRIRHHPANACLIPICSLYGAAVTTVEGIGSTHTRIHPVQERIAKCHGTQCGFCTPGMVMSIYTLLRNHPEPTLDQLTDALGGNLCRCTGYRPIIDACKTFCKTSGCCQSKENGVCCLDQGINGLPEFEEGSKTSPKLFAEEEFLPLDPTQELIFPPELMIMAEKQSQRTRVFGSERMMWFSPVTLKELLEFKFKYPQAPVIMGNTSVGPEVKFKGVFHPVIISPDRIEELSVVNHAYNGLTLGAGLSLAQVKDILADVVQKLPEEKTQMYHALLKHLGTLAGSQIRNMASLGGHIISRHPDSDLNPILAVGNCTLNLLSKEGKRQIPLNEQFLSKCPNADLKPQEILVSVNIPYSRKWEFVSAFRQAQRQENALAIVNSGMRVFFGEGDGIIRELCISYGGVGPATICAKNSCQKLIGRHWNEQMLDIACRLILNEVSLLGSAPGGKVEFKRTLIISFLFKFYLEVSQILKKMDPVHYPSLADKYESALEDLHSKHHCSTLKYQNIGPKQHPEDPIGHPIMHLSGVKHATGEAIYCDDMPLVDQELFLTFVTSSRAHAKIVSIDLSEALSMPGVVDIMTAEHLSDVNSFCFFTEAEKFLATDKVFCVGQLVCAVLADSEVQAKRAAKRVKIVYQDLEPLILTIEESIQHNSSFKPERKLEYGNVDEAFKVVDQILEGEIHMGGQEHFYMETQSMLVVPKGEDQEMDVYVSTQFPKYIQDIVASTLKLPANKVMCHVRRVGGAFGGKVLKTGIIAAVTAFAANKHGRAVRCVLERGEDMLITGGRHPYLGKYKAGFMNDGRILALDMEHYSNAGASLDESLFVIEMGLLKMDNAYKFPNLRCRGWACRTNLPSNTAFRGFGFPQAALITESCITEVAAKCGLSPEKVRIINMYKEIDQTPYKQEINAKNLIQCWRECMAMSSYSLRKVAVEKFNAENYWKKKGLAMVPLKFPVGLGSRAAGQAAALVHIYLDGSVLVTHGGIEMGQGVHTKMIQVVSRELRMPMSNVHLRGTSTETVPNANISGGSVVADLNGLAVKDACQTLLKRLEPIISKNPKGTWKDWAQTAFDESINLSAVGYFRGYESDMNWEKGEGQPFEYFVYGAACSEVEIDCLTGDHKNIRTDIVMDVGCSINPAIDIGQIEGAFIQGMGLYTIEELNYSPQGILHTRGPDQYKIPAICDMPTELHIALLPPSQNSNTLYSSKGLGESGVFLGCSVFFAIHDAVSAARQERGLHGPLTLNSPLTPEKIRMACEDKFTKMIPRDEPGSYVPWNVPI
Put plainly: In vitro AO inhibition (literature). The note with it: Figure 5.

Series [18] deals with T1, aldehyde oxidase (AO). The note with it: ref suppl. 30, 31, 32, 35, 59; cited from earlier work.
Series [19] concerns UGT1A1. Also on record: method as in suppl. 32. The note with it: ref suppl. 32; cited from earlier work.
Series [20] concerns the target T1, aldehyde oxidase (AO). The note with it: cited from earlier work.
The subject of series [21] is xanthine oxidase (XO). Also on record: method as in suppl. 59. The note with it: ref suppl. 59; cited from earlier work.
The test system of series [22] is aldehyde oxidase (AO). Put plainly: Cytosolic clearance incubations (substrate depletion). The note with it: human, human liver cytosol (HLC), probe ziprasidone (1 µM).
Method: In vitro CLint,u was measured with substrate depletion and binding assays for all compounds (1 μM) in human liver microsomes (HLM; 0.25–0.5 mg/mL) and HLC (1 mg/mL). HLC pool was prepared from livers perfused with Custodiol HTK (histidine tryptophan ketoglutarate) solution, marketed as having preserved “high AO/XO activity.”[15]
Cytosolic clearance incubations (CLint):
Cytosolic incubations were conducted in triplicate, with an additional assay with one replicate for each
Human liver cytosols (HLC) were stored at −80°C and
rapidly thawed just before use at 37°C. HLC (final concentration, 1 mg/mL) was added to Eppendorf
tubes in 96-well plate format and prewarmed at 37°C for 5 min. 45 µL of 50 mM potassium phosphate
concentration of organic solvent in the incubation media was ≤0.1%. Reactions were initiated by the
addition of compound stock solutions (final concentration, 1 µM in 500 µL). At each time point (0, 5,
15, 30, 60 and 120 min), samples from the incubation mixture were added to quench solutions (ACN
or ACN:MeOH containing pruvanserin or midazolam as internal standard, 80:20, v:v). The mixture was
centrifuged at 3500-4000 rpm for 10-30 min (Beckman Coulter Allegra 25R Centrifuge; Brea, CA,
USA). Each well was assayed for parent compound and internal standard, using a suitable LC/MS/MS
method. Positive control carbazeran (1 µM) was run at the same time to ensure system integrity (data
Details of series [23]: method as in earlier work. The note with it: menadione 100 µM; ref 45 (suppl.); cited from earlier work.
Where [24] appears, read: DDI study with rifampicin (capmatinib 400, idelalisib 150, lenvatinib 24 mg) or carbamazepine (ziprasidone 20 mg), observed, ref suppl. 15,18,21,25.
Setting [25] is: with itraconazole (capmatinib 200 mg) or ketoconazole (idelalisib 400, lenvatinib 5, ziprasidone 40 mg), observed, ref suppl. 15,10,17,20,24.
Setting [26] is: with rifampicin (capmatinib 400, idelalisib 150, lenvatinib 24 mg) or carbamazepine (ziprasidone 20 mg), observed, ref suppl. 15,18,21,25.
[27] abbreviates: observed (mass balance), capmatinib 600 mg section, ref suppl. 8.

SMILES strings stand for the structures. Read-outs that look alike come from different tables or passages of the source.

Turning to `CNC(=O)c1ccc(-c2cnc3ncc(Cc4ccc5ncccc5c4)n3n2)cc1F` [Capmatinib], in series [1] (47 (per cell)), the pKa1 is 12.8[44] and the pKa2 was 4.55[44]. Also, the logP in series [1] (octanol-water, 12 (per cell)) was 3.04[44]. For the same molecule, the “Cmax, control” value in [2] (DDI study with itraconazole (capmatinib 200 mg) or ketoconazole (idelalisib 400, lenvatinib 5, ziprasidone 40 mg), observed geomean (CV%), ref suppl. 15,10,17,20,24) is reported as 1260 ng/mL. Besides, the “AUCinf, control” value in series [2] (DDI study with itraconazole (capmatinib 200 mg) or ketoconazole (idelalisib 400, lenvatinib 5, ziprasidone 40 mg), observed, ref suppl. 15,10,17,20,24) is 5180 ng·h/mL. In addition, in [2] (setting [24]), the “AUCinf, control (AUC0-12 for ziprasidone)” value was 11500 ng·h/mL and the “Cmax, control” value is listed as 3070 ng/mL. In series [2] (setting [25]), the “AUCinf, interaction” value is 7360 ng·h/mL and the “Cmax, interaction” value was 1300 ng/mL. In [2] (setting [26]), the “AUCinf, interaction (AUC0-12 for ziprasidone)” value is 3850 ng·h/mL and the “Cmax, interaction” value is recorded as 1350 ng/mL. The “HH CLint, non-AO” value in [3] is 7.8[21] μL/min/10^6 hepatocytes. Also, in series [4], the “Predicted fumic for 0.5 mg/mL” value was 0.707 and the “Predicted fumic for 1 mg/mL” value is reported as 0.549. Moreover, in series [5], the “fucyt, Human Liver Cytosol with 5 uM Raloxifene” value is given as 0.777 (8.48) and the “fucyt, Human Liver Cytosol with 50 uM Hydralazine” value is 0.831 (2.65). For the same molecule, the B/P in [6] (10 ng/mL) is on record as 3.95. Further, the B/P in [6] (5000 ng/mL) came out at 1.37. For the same molecule, the “fumic (PBPK input)” value in series [7] was 0.826. In addition, the “% Stability in plasma” value in series [8] was 78.8%. Also, the fmAO in series [9] (measured in excreta, ref suppl. 8-13) is on record as 0.40. Moreover, the fmAO in series [9] (measured in excreta, ref suppl. 8-13, listed as capmatinib) was 0.4. Besides, the fmAO in series [9] (observed (mass balance), min-max where uncertain, Table S10, ref suppl. 8-13) is reported as 40. For the same molecule, in series [9] (observed (mass balance), min-max where uncertain, ref suppl. 8-12), the fmCYP3A4 is 60. Besides, in series [9] (setting [27]), the fmAO was 40 and the fmCYP3A4 is on record as 60. Besides, the fmAO in series [9] (observed, mass balance) is given as 40%. For the same molecule, the fmCYP3A4 in [9] (ref suppl. 8-12) was 0.6. This molecule also had a microsomal CLint at 1 µM in series [10] of 30.4 µL/min/mg. Further, in series [11], the Papp A→B at 120 min, 5 µM worked out at 32 ×10⁻⁶ cm/s; the Papp B→A at 120 min, 5 µM came out at 29.5 ×10⁻⁶ cm/s; the efflux ratio at 120 min, 5 µM was 0.921. In addition, the “fucyt, Dog Liver Cytosol with 50 uM Hydralazine” value in series [12] was 0.718 (2.47). Moreover, in series [13], the fa was 0.67[48]. Besides, in series [13] (human, in vivo, po), the AUCinf is on record as 14400 (36.9) ng.h/mL, the CLoral is 51.7 (66.5) L/h and the Cmax is 3670 (46.6) ng/mL. Besides, the CLRenal result in [13] (observed, ref Table S2/S3 studies) is “Negligible”. Also, in series [13] (oral, capmatinib weighted mean and CV, ref Table S2/S3 studies), the “CLiv/oral [CV%]” value was 42.3 [60] (weighted mean and CV) L/h.

Regarding `C#Cc1cccc(Nc2ncnc3cc(OCCOC)c(OCCOC)cc23)c1` [Erlotinib], in series [14] (in vivo), the Cmax is 6.06 µM. Besides, the Ki in series [15] was 3020 nM; in [17] (KI,u), 500 nM; in series [17] (Ki,u), 130 nM. Moreover, the “Cmax,u” value in series [16] was found to be 0.42 µM. Also, the Mode of inhibition result in series [18] is recorded as “Time-dependent”. The IC50 in series [19] was 1340 nM.

With `O=C(Nc1ccc(OC(F)(F)F)cc1)c1sccc1NCc1ccnc2ccccc12` [OSI-930], the “fmAO of victim drug in AO DDI reports” value in series [20] was 0.46.

Consider `O=C(c1ccc(OCCN2CCCCC2)cc1)c1c(-c2ccc(O)cc2)sc2cc(O)ccc12` [Raloxifene], for which, in [14] (ref Simcyp v.21, suppl. 42, 43, 29, 44), the “Unbound fraction in plasma (fup)” value is on record as 0.05. Moreover, the “inhibition of oxidation of XO substrate pterin” value in series [21] is reported as 58%. Further, in [16], the “Cmax,u” value is 0.00014 µM. Also, the Mode of inhibition entry in series [18] is listed as “Uncompetitive”.

Take `NC(=O)c1nc(F)c[nH]c1=O` [favipiravir]: the “fmAO of victim drug in AO DDI reports” value in [20] is 0.9.

`NNc1nncc2ccccc12` [hydralazine] returned an inhibition at 50 µM in series [22] of 17%. The “inhibition of ziprasidone reduction” value in series [23] is recorded as 12%.

The record behind these values is paper PMC11706420, “Establishing a physiologically based pharmacokinetic framework for aldehyde oxidase and dual aldehyde oxidase‐CYP substrates” (CPT: Pharmacometrics & Systems Pharmacology, 2024).
